Results on 21 compounds are retold here after patent US11617740B2, “Chemical inhibitors of Mycobacterium tuberculosis DosRST signaling and persistence” (priority 2017, dated 2023).

Converted amounts (≈) assume the structure as drawn. “Also recorded” adds a separate entry of the source. Read-outs that look alike come from different tables or passages of the source.

The subject of data set [1] is DosR-regulated genes hspX and tgs1. The class given is cell-based. The following applies: 2 h induction.
The subject of data set [2] is DosRST pathway, CDC1551 (hspX′::GFP) reporter strain. Kind of data set: microbe, parasite or virus in culture. The class given is cell-based.
In the next data set the target is DosR (Mycobacterium tuberculosis, UniProt P9WMF9). As to the kind of experiment: Electrophoretic mobility shift assay (EMSA), DosR binding of hspX promoter DNA. The following applies: 1-80 μM, 2 μM DosR.
Where [3] appears, read: Mycobacterium tuberculosis, Table 3, HC104 series, whole cell assay, read-out: EC50.
Setting [4] is: Mycobacterium tuberculosis, 144 h, CDC1551 (hspX′::GFP), 6 d, read-out: EC50 of DosRST-dependent GFP fluorescence inhibition (FI).

Sequence of DosR (P9WMF9 whole entry, looked up): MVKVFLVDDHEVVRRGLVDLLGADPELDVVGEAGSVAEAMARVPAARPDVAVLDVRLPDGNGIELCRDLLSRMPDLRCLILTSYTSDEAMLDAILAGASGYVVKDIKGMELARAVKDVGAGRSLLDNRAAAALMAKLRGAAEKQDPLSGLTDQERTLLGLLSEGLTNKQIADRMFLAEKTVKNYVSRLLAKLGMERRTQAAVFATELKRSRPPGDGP

For the compound `NCCN(CCN)/[N+]([O-])=N/O` [DETA-NONOate, reference compound], in data set [1], the “induction of hspX by the inducer” value is listed as 3024 fold and the “induction of tgs1 by the inducer” value is 113 fold.
As to `CN(C)CCCN1C(=O)c2cccc3cccc(c23)C1=O` [HC104B], the “activity in the whole cell Mtb reporter assay” value (“activity” for short) in data set [2] is given as “complete loss of activity”. In addition, the EC50 in data set [2] (setting [3]) was over 200000 nM.
Take `CN1C(=O)c2cccc3c(Br)ccc(c23)C1=O` [HC104G]: the “fold less active than HC104A” value is reported as about 10 fold in data set [2] and about 5 fold in data set [2] (whole cell assay). The EC50 in data set [2] (setting [3]) came out at 43800 nM.
With `O=C(Nc1ccon1)Nc1ccc(Cl)cc1Cl` [HC106C], in data set [2], the “activity” value is “no activity”.
With `O=C(Nc1ccccc1)Nc1ccno1` [MSU-33189, 3-(1,2-oxazol-5-yl)-1-phenylurea], the EC50 in data set [2] (setting [4]) was determined as 630 nM.
On to `O=C(Nc1ccno1)Nc1ccno1` [MSU-39444, 1,3-bis(1,2-oxazol-5-yl)urea], for which the EC50 is about 2000 nM in data set [2] (CDC1551 (hspX′::GFP), 6 d, read-out: EC50 of DosRST-dependent GFP fluorescence inhibition (FI)) and 1700 nM in data set [2] (setting [4]).
Regarding `O=C(Nc1cccc(Cl)c1)Nc1ccno1` [MSU-39445, 1-(3-chlorophenyl)-3-(1,2-oxazol-5-yl)urea], the melting point was 159 °C (dec.). Also, the EC50 in data set [2] (setting [4]) is 750 nM. Further, in the data set “physchem”, the solubility was over 100 µM.
`O=C(Nc1ccc(Cl)nc1)Nc1ccno1` [MSU-39448, 1-(6-chloropyridin-3-yl)-3-(1,2-oxazol-5-yl)urea] displayed a melting point of 158 to 159 °C.
On the same count and under the same terms, then `O=C(Nc1ccc(Cl)cn1)Nc1ccno1` [MSU-39450, 1-(5-chloropyridin-2-yl)-3-(1,2-oxazol-5-yl)urea], with 122 to 123 °C.
Same read-out and setting: next, `O=C(Nc1ccc(Cl)c(Cl)c1)Nc1ccno1` [MSU-39452, 1-(3,4-dichlorophenyl)-3-(1,2-oxazol-5-yl)urea]: 164 °C.
As to `CC(C)(C)c1ccc(NC(=O)Nc2ccno2)cc1` [MSU-41442, 1-(4-tert-butylphenyl)-3-(1,2-oxazol-5-yl)urea], the melting point was 163 °C. For the same compound, the solubility in the data set “physchem” was over 100 µM.
Compound `O=C(Nc1ccc(-c2ccccc2)cc1)Nc1ccno1` [MSU-41443, 1-{[1,1′-biphenyl]-4-yl}-3-(1,2-oxazol-5-yl)urea] registered a melting point of 193 °C. Further, in “physchem”, the solubility turned out to be 14 µM (≈ 3.91 µg/mL).
`O=C(NCc1ccccc1)Nc1ccno1` [MSU-41462, 1-benzyl-3-(1,2-oxazol-5-yl)urea] showed a melting point of 128 to 130 °C.
Still for that read-out and setting: next, `CC(C)CNC(=O)Nc1ccno1` [MSU-41542, 3-(2-methylpropyl)-1-(1,2-oxazol-5-yl)urea]: 187 °C.
Still for that read-out and setting: next, `O=C(Nc1ccc(COc2ccccc2)cc1)Nc1ccno1` [MSU-41545, 3-(1,2-oxazol-5-yl)-1-[4-(phenoxymethyl)phenyl]urea]: 164 °C.
The same measure, in the same setting: then `O=C(Nc1ccno1)NC1CCCC1` [MSU-41546, 1-cyclopentyl-3-(1,2-oxazol-5-yl)urea], with 182 °C.
For the compound `O=C(Nc1ccno1)NC1CCCCC1` [MSU-42002, 1-cyclohexyl-3-(1,2-oxazol-5-yl)urea], the melting point came to 180 °C.
Same read-out and setting: next, `O=C(Nc1cccc(Br)c1)Nc1ccno1` [MSU-42003, 1-(3-bromophenyl)-3-(1,2-oxazol-5-yl)urea]: 157 °C; `O=C(NCCc1ccccc1)Nc1ccno1` [MSU-42004, 3-(1,2-oxazol-5-yl)-1-(2-phenylethyl)urea]: 165 °C.
In the case of `O=C(O)CCCN1C(=O)c2cccc3cccc(c23)C1=O` [virstatin, reference compound], the “activity” value in data set [2] was “did not have any impact on DosRST signaling; also recorded: nor did virstatin inhibit the DosRST pathway; also recorded: not effect”. The “impact on DosR binding of DNA (words)” value at DosR is “no impact on DosR binding of DNA”; on DosR (listed as Virstatin) it was “did not impact DosR binding of promoter DNA”.
On to `O=C1O[C@H]([C@@H](O)CO)C(O)=C1O` [vitamin C, reference compound], for which, in data set [1], the “induction of hspX by the inducer” value was determined as 2162 fold and the “induction of tgs1 by the inducer” value is recorded as 58 fold.
